From EP3932395A1, “STABLE EMULSION CONTAINING AN ACTIVE PHARMACEUTICAL INGREDIENT BASED ON N(3-METHYL-2-OXO-2,3-DIHYDROBENZO[D]OXAZOL-5-YL)DODECANAMIDE, PRODUCTION AND USE” (Dr. August Wolff GmbH & Co. KG Arzneimittel, priority 2020, dated 2022)

What was measured:
[1] = Simultaneous Thermal Analysis (STA = TGA + DTA); type: physicochemical; settings: heated 10°C/min from 30°C to 300°C, nitrogen purge
Protocol: Simultaneous Thermal analysis (STA = TGA (Thermogravimetric Analysis) + DTA (Differential Thermal Analysis)) was performed in order to test the stability of N-(3 -methyl-2-oxo-2,3-dihydrobenzo[d]oxazol-5-yl)dodecanamide (hereinafter "the API") while heating. Approximately 10 mg of the sample was weighed into a ceramic crucible and placed into the chamber of a Perkin-Elmer STA 600 TGA/DTA analyzer at ambient temperature. The sample was then heated at a rate of 10°C/min from 30°C up to 300°C during which time the change in weight was monitored as well as DTA signal. The purge gas used was nitrogen at a flow rate of 20 cm^3/min.

[2] = Forced degradation studies; type: physicochemical; settings: 0.05M NaOH, 5 min, room temperature
[3] = Solubility screening with standard cream-base excipients; type: physicochemical; settings: Ph.Eur. terms, 15°C to 25°C
Protocol: A solubility screening with standard excipients for preparation of a cream base (glycerol monostearate 60, cetyl alcohol, MCTs, paraffin, macrogol-20-glycerol monostearate, propylene glycol and water) was performed.
The following procedure was used to prepare the samples for solubility screen: • 1. Weigh out the API • 2. Add individual excipient (both solid and liquid excipients) • 3. Slurry either by roller at RT if liquid excipient, or by shaker at 60°C if the excipient was solid • 4. Shake or sonicate occasionally • 5. Check solubility visually, if API not dissolved, add more excipient • 6. Repeat steps 3 to 5 • 7. Samples prepared in steps 1 through 6 were centrifuged and removed from the top for HPLC. • 8. Dilute each sample to 1 mL. Only samples fully dissolved were checked by HPLC.
In the general notice of Ph.Eur. in statements of solubility the terms used have the following significance, referred to at a temperature between 15°C and 25°C.

[4] = Particle size distribution of the API by laser diffraction, pre and post jet-mill micronization; type: physicochemical
Text: A Sturtevant qualification micronizer was used to reduce the particle size of the API. The mill was operated with tangential flow (i.e. the nitrogen supply and drug are fed in the same direction in the milling chamber). The material of API as received was fed into the jet mill using a Venturi feed system, where air was used to draw the feed material into the milling chamber. A product filter bag was affixed to the outlet of the mill, through which the exhausts and the milled drug substance collects. The milling conditions were set as follows: Grind gas: Dry nitrogen gas; Grind pressure: 80 psi; Feed pressure: 80 psi; Room conditions: Ambient.
A representative sample, dispersed at an adequate concentration in a suitable liquid, is passed through the beam of a monochromatic light source, preferably from a laser. The light scattered by the particles at various angles is measured by a multi-element detector, and numerical values relating to the scattering pattern are then recorded for subsequent analysis. These numerical scattering values are then transformed, using an appropriate optical model and mathematical procedure, to yield the proportion of total volume to a discrete number of size classes forming a volumetric particle size distribution (e.g., dso describes a particle diameter corresponding to 50% of the cumulative undersize distribution, i.e. 50% of the particles have a diameter that is smaller than a threshold value).
The Particle Size Distribution was determined using Malvern Mastersizer MicroPlus particle size analyzer (Malvern Instruments, UK) and 1% (v/v) Tween 80 in deionized water was used as dispersant for this experiment. The equipment was turned on and the following conditions were set: Analysis Model: Polydisperse; Presentation Code: Frauenhofer (5$$D); Stirring speed: 10 o'clock dial position.
The equipment was left to warm up for about 1 hour and approximately 100 mL of the dispersant was added to the sample dispersion unit. Backgrounds were first measured using the dispersant. A fresh sample was prepared by adding -20 to 50 mg API into ∼2 to 3 mL of the dispersant and this was sonicated for ∼5 minutes. The sample was added dropwise into the sample dispersion unit while stirring the dispersant until a suitable obscuration value was achieved and the particle size distribution could be measured. A minimum of three measurements were made for the pre and post micronized samples.
Alternatively, the Malvern Mastersizer 2000 can be used for the determination of Particle Size Distribution. In this case water is used as dispersant.
For upscaling purposes, the micronization process was transferred to a jet mill AS200 (Hosokawa Alpine, Germany) on which the following experiments were performed. Dry nitrogen and air were used as grind gas in order to determine the gas which is more suitable for the micronization process.

[5] = test system: Human lymphoma U937 cells; experiment: Cellular uptake of [3H]-AEA; type: cell-based; settings: U-937, 100 nM AEA, 15 min pre-incubation, 15 min at 37°C
Protocol: Human lymphoma U937 cells were grown in RPMI 1640 medium (Invitrogen, Basel, Switzerland) supplemented with 10% fetal bovine serum, […] fungizone (amphotericin B), 100 units/mL penicillin, 100 µg/mL streptomycin, and 2 mM L-glutamine (all from Invitrogen) and selected for the cellular AEA uptake assay. 2.5 x 10^6 cells were collected and suspended in 250 µL of RPMI 1640 medium (Invitrogen, Basel, Switzerland) at 37°C using glass silanized vials. Cells were pre-incubated 15 min at 37°C in presence of the test compound in a concentration range of 10^-11 - 10^-5 M or in presence of the same amount (5 µL) of vehicle control (DMSO). Then a mixture of 0.5 nM [^3H]-AEA (60 Ci/mmol) (American Radiolabeled Chemicals, Inc., San Louis, MO, US) and 99.5 nM of nonradioactive AEA (Tocris Cookson Ltd., Bristol, UK) resulting in a final concentration of 100 nM AEA was added and samples were incubated at 37°C for another 15 minutes. The reaction was stopped by rapid filtration over UniFilter®-96 GF/C (Perkin Elmer, Boston MA, US) pre-soaked with PBS 0.25% BSA (w/v). […] Radioactivity was measured using a Perkin Elmer 1450 Microbeta TRILUX liquid scintillation counter. Results were expressed as % of AEA uptake versus cells treated with solvent and the EC50 and IC50 values were calculated from the sigmoidal curves, which were generated using the GraphPad Prism 5.0 (GraphPad Software, San Diego, CA, US).

[6] = Forced degradation studies; type: physicochemical
Text: Solid samples and sample solutions of N-(3-methyl-2-oxo-2,3-dihydrobenzo[d]oxazol-5-yl)dodecanamide were exposed to stress agents for a defined period and influence of stress on the compound were studied (i.e. the degradation).
The evaluation was expressed as relative percent with respect to t=0 result of unstressed sample (mass balance, % of peak areas).
The stress conditions were adjusted in such way that the degradation varied in a range of approx. 1 to 5% generated impurities.
The following stress conditions were applied: acidic and basic hydrolysis, oxidizing agent, temperature and photolytic conditions.
Solid sample - daylight, laboratory condition (VIS) - exposure time 7 days Solid sample - UV 254 nm, laboratory condition (UV) - exposure time 6 days
Solid sample, 70°C - exposure time 6 days
Sample solution, 3% H2O2, laboratory condition - exposure time 24 h
Sample solution, 0.1M HCI, 50°C - exposure time 24 h
Sample solution, 0.01-0.05M NaOH, 25°C (1M NaOH, 50°C, 1 h) - exposure time 45 min

[7] = first batch (5 g), post micronization, mean ± SD
[8] = first batch (5 g), pre micronization, mean ± SD
[9] = second batch (200 g), post micronization, mean ± SD
[10] = second batch (200 g), pre micronization, mean ± SD

temperature up to which the material remained stable [1]: ~190 °C | purity of the measured sample after basic hydrolysis [2]: 89.50 % A | solubility ([3]; in water): Practically insoluble (more than 10,000) | d90 ([4]; 150 g batch, jet mill AS200, normal air as grind gas, post micronization): 7.43 µm | d90 ([4]; 200 g batch, jet mill AS200, dry nitrogen as grind gas, post micronization): 8.92 µm | d10 [4, 7]: 1.11±0.05 µm | d50 [4, 7]: 2.97±0.05 µm | d90 [4, 7]: 6.76±0.36 µm | d10 [4, 8]: 7.53±1.55 µm | d50 [4, 8]: 33.71±18.61 µm | d90 [4, 8]: 106.06±56.69 µm | d90 ([4]; jet mill AS200, batch size 0.913 kg): 4.8 µm | d90 ([4]; jet mill AS200, batch size 1.035 kg): 5.5 µm | d90 ([4]; jet mill AS200, batch size 1.073 kg): 4.4 µm | d90 ([4]; jet mill AS200, batch size 3.60 kg): 7.6 µm | d10 [4, 9]: 1.96±0.11 µm | d50 [4, 9]: 4.98±0.10 µm | d90 [4, 9]: 10.29±0.44 µm | d10 [4, 10]: 26.90±3.65 µm | d50 [4, 10]: 69.71±9.95 µm | d90 [4, 10]: 127.67±18.59 µm | EC50 [5]: 4 nM | degradation under basic hydrolysis ([6]; 1M NaOH, 50°C, after 1 hour): completely degraded | time for which the stressed sample was stable ([6]; 3% H2O2 solution): at least 24 hours | stability conclusion ([6]; acidic condition): stable | stability conclusion ([6]; alkaline conditions): not stable | stability conclusion ([6]; oxidizing condition (H2O2)): stable | stability conclusion ([6]; photolytic conditions (VIS, UV)): photo stable | mass balance ([6]; sample solution, 0.1M HCl, 50°C, 24 h): 101.2% | mass balance ([6]; sample solution, 3% H2O2, 24 h): 98% | mass balance ([6]; solid sample, 70°C, 6 days): 102.6% | mass balance ([6]; solid sample, UV 254 nm, 6 days, relative to t=0 unstressed sample): 102.4% | mass balance ([6]; solid sample, daylight (VIS), 7 days, relative to t=0 unstressed sample): 100.2% | stability conclusion ([6]; temperature conditions (70°C)): thermo stable
SMILES: CCCCCCCCCCCC(=O)Nc1ccc2oc(=O)n(C)c2c1 [API, N-(3-methyl-2-oxo-2,3-dihydrobenzo[d]oxazol-5-yl)dodecanamide]
solubility ([3]; in MCTs): Very slightly soluble (from 1,000 to 10,000) | solubility ([3]; in propylene glycol): Very slightly soluble (from 1,000 to 10,000)
